Measurements reported in patent publication EP3057951B1, “METHYLENE LINKED QUINOLINYL MODULATORS OF ROR-GAMMA-T” (Janssen Pharmaceutica NV, priority 2013, dated 2015).
Where a name gives a salt, the structure may show the parent alone. Read-outs that look alike come from different tables or passages of the source.

Assays:
[1] = molecular target: T1, wild type human RORγt ligand binding domain (RORyt LBD) (Homo sapiens, UniProt P51449); assay: RORγt ThermoFluor assay (thermal shift, binding affinity KD)
T1 construct: His-tag (N); TurboTEV protease cleavage site (ENLYFQG) (N); made in house; host or cells: E. coli (pHIS1, modified pET vector)
T1 sequence (P51449 258-518): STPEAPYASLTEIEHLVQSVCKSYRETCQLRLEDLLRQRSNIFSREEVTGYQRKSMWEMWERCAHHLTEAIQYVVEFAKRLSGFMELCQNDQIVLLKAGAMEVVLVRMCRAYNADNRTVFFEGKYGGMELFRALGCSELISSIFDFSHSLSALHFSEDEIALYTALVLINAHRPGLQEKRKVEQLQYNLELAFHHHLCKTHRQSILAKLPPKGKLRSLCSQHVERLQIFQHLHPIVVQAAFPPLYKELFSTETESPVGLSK

[2] = molecular target: T2, wild type human RORγt LBD (Homo sapiens, UniProt P51449); assay: RORγt (LBD) Reporter Assay (GAL4-luciferase, HEK293T cells); type: cell-based; conditions: for inhibition at 6 µM: HEK-293T, read-out: RORγt (LBD) Reporter Assay, % inhibition @ 6 µM, 6 µM compound concentration; for RORγt (LBD) Reporter Assay, % inhibition @ 6 µM: 6 µM compound concentration
T2 construct: expressed in transfected cells; host or cells: HEK293T
T2 sequence (P51449 258-518): T1 sequence (P51449 258-518)

[3] = HEK293T cells, value after the comma with ∼, > or < could not be included in the average

Kd [1] [nM] | IC50 [2, 3] [nM] | inhibition at 6 µM [2] [%] | IC50 ([2]; HEK293T cells) [nM] | inhibition at 6 µM ([2]; HEK293T cells) [%] | RORγt (LBD) Reporter Assay, % inhibition @ 6 µM ([2]; HEK293T cells) [%] | SMILES | RORγt (LBD) Reporter Assay, % inhibition @ 6 µM [2] [%]
55 | 1.9 | 100 |  |  |  | COc1nc2ccc(C(O)(c3ccc(C#N)cc3)c3cncn3C)cc2c(Cl)c1Cc1ccc(C(F)(F)F)nc1 (centres unmarked) [Example 38a, 4-((4-Chloro-2-methoxy-3-((6-(trifluoromethyl)pyridin-3-yl)methyl)quinolin-6-yl)(hydroxy)(1-methyl-1H-imidazol-5-yl)methyl)benzonitrile] | 
0.59 | 8.2 | 90 |  |  |  | COc1nc2ccc(C(O)(c3cnnn3C)c3cnc(C)n3C)cc2c(C#N)c1Cc1ccc(F)cc1 (racemic) [Example 66a, 6-((1,2-Dimethyl-1H-imidazol-5-yl)(hydroxy)(1-methyl-1H-1,2,3-triazol-5-yl)methyl)-3-(4-fluorobenzyl)-2-methoxyquinoline4-carbonitrile] | 
2000 | 2800 | 79 |  |  |  | COc1nc2ccc(C(O)(c3sc(C)nc3C)c3cnnn3C)cc2cc1Cc1ccc(C(F)(F)F)cc1 (single isomer, unassigned) [Example 92b, (2,4-Dimethylthiazol-5-yl)(2-methoxy-3-(4-(trifluoromethyl)benzyl)quinolin-6-yl)(1-methyl-1H-1,2,3-triazol-5-yl)methanol] | 
23000 |  |  | ~6000 | 58 |  | Cn1cncc1C(O)(c1ccc(C(F)(F)F)nc1)c1ccc2nc(-c3nccn3C)c(Cc3ccccc3)c(Cl)c2c1 (single isomer, unassigned) [Example 113b, (3-Benzyl-4-chloro-2-(1-methyl-1H-imidazol-2-yl)quinolin-6-yl)(1-methyl-1H-imidazol-5-yl)(6-(trifluoromethyl)pyridin-3-yl)methanol] | 
590 | > 6000 | 45 |  |  |  | CC(=O)N1CCC(C(O)(c2ccccc2)c2ccc3nc(Cl)c(Cc4cncnc4)c(OC(F)F)c3c2)CC1 (racemic) [Example 73a, 1-(4-((2-Chloro-4-(difluoromethoxy)-3-(pyrimidin-5-ylmethyl)quinolin-6-yl)(hydroxy)(phenyl)methyl)piperidin-1-yl)ethanone] | 
36 | 310 | 97 |  |  |  | CC(=O)N1CCC(C(O)(c2cc(C)c3nc(C#N)c(Cc4ccc(-n5cccn5)cc4)c(C#N)c3c2)c2cncn2C)CC1 (single isomer, unassigned) [Example 81b, 3-(4-(1H-Pyrazol-1-yl)benzyl)-6-((1-acetylpiperidin-4-yl)(hydroxy)(1-methyl-1H-imidazol-5-yl)methyl)-8-methylquinoline-2,4-dicarbonitrile] | 
5.2 |  |  | 71 | 101 |  | COc1nc2ccc(C(O)(c3cnnn3C)C3CN(C(=O)OC(C)(C)C)C3)cc2c(Cl)c1Cc1ccc(C(F)(F)F)cc1 (centres unmarked) [Example 123, tert-Butyl-3-((4-chloro-2-methoxy-3-(4-(trifluoromethyl)benzyl)quinolin-6-yl)(hydroxy)(1-methyl-1H-1,2,3-triazol-5-yl)methyl)azetidine-1-carboxylate] | 
6.3 | 19 | 82 |  |  |  | Cn1cncc1C(O)(c1ccc(C#N)cc1)c1ccc2nc(C(F)(F)F)c(Cc3ccccc3)c(C#N)c2c1 (centres unmarked) [Example 104, 3-Benzyl-6-((4-cyanophenyl)(hydroxy)(1-methyl-1H-imidazol-5-yl)methyl)-2-(trifluoromethyl)quinoline-4-carbonitrile•TFA] | 
> 56000 |  |  | 1000 |  |  | CCN(CC)c1nc2ccc(C(O)(c3ccc(Cl)cc3)c3cncn3C)cc2c(C#N)c1Cc1ccc(-n2cccn2)cc1 (single isomer, unassigned) [Example 154c, 3-(4-(1H-pyrazol-1-yl)benzyl)-6-((4-chlorophenyl)(hydroxy)(1-methyl-1H-imidazol-5-yl)methyl)-2-(diethylamino)quinoline4-carbonitrile] | 
14 | ~4000 | 80 |  |  |  | Cn1cncc1C(O)(c1ccc(C(F)(F)F)nc1)c1ccc2nc(Cl)c(Cc3ccccc3)c(Cl)c2c1 (centres unmarked) [Example 109, (3-Benzyl-2,4-dichloroquinolin-6-yl)(1-methyl-1H-imidazol-5-yl)(6-(trifluoromethyl)pyridin-3-yl)methanol•TFA] | 
12 | 83 | 99 |  |  |  | COc1nc2ccc(C(O)(c3cccnc3)c3cccc(F)c3)cc2c(Cl)c1Cc1ccc(-n2cccn2)cc1 (centres unmarked) [Example 61, (3-(4-(1H-Pyrazol-1-yl)benzyl)4-chloro-2-methoxyquinolin-6-yl)(3-fluorophenyl)(pyridin-3-yl)methanol] | 
600 |  |  | ~2000 |  | 92 | Cn1cncc1C(O)(c1ccc(C(F)(F)F)nc1)c1ccc2nc(N3CCOCC3)c(Cc3ccc(-n4cccn4)cc3)c(Cl)c2c1 (single isomer, unassigned) [Example 146c, {4-Chloro-2-morpholin-4-yl-3-[4-(1H-pyrazol-1-yl)benzyl]quinolin-6-yl}(1-methyl-1H-imidazol-5-yl)[6-(trifluoromethyl)pyridin-3-yl]methanol] | 
0.19 | 9.9 | 74 |  |  |  | COc1nc2ccc(C(O)(c3cnnn3C)c3cnc(C)n3C)cc2c(Cl)c1Cc1ccc(F)cc1 (racemic) [Example 65a] | 
0.29 | 4.8 | 98 |  |  |  | COc1nc2ccc(C(O)(c3cncn3C)c3cnnn3C)cc2c(Cl)c1Cc1ccc(C(F)(F)F)cc1 (racemic) [Example 89a, (4-Chloro-2-methoxy-3-(4-(trifluoromethyl)benzyl)quinolin-6-yl)(1-methyl-1H-1,2,3-triazol-5-yl)(1-methyl-1H-imidazol-5-yl)methanol] | 
11 | 32 | 104 |  |  |  | COc1nc2ccc(C(O)(c3ccc(Cl)cc3)c3cncn3C)cc2c(C#N)c1Cc1ccc(C(F)(F)F)cc1 (racemic) [Example 55a, 6-((4-Chlorophenyl)(hydroxy)(1-methyl-1H-imidazol-5-yl)methyl)-2-methoxy-3-(4-(trifluoromethyl)benzyl)quinoline-4-carbonitrile] | 
380 | 420 |  |  |  |  | COc1c(Cc2ccccc2)c(C(F)(F)F)nc2ccc(C(O)(c3ccccn3)c3cncn3C)cc12 (single isomer, unassigned) [Example 98c, (3-Benzyl-4-methoxy-2-(trifluoromethyl)quinolin-6-yl)(1-methyl-1H-imidazol-5-yl)(pyridin-2-yl)methanol] | 96

SMILES | Kd [1] [nM] | IC50 [2, 3] [nM] | inhibition at 6 µM [2] [%] | IC50 ([2]; HEK293T cells) [nM] | inhibition at 6 µM ([2]; HEK293T cells) [%] | RORγt (LBD) Reporter Assay, % inhibition @ 6 µM ([2]; HEK293T cells) [%] | RORγt (LBD) Reporter Assay, % inhibition @ 6 µM [2] [%]
Cn1cc(-c2nc3ccc(C(O)(c4ccc(C(F)(F)F)nc4)c4cncn4C)cc3c(C#N)c2Cc2ccccc2)cn1 (centres unmarked) [Example 112a, 3-Benzyl-6-(hydroxy(1-methyl-1H-imidazol-5-yl)(6-(trifluoromethyl)pyridin-3-yl)methyl)-2-(1-methyl-1H-pyrazol-4-yl)quinoline-4-carbonitrile•TFA] | 6600 | 1000 | 91 |  |  |  | 
Cn1cc(-c2nc3ccc(C(O)(c4ccc(C(F)(F)F)nc4)c4cncn4C)cc3c(C#N)c2Cc2ccccc2)cn1 (single isomer, unassigned) [Example 112c, 3-Benzyl-6-(hydroxy(1-methyl-1H-imidazol-5-yl)(6-(trifluoromethyl)pyridin-3-yl)methyl)-2-(1-methyl-1H-pyrazol-4-yl)quinoline-4-carbonitrile] | 13000 | ~5000 |  |  |  |  | 71
